Source: paper PMC8868346, “Novel Series of Dual NRF2 Inducers and Selective MAO-B Inhibitors for the Treatment of Parkinson’s Disease” (Antioxidants, 2022)

Tested on: HMOX1 and GCLC in MEF cells
Experiment: Western blot of NRF2-dependent proteins in WT and NRF2 KO MEF cells
Type: cell-based, mouse
Conditions: 10 µM, 8 or 16 h
Method: Cell samples were lysed in ice-cold AKT lysis buffer (137 mM of NaCl, 20 mM of NaF, 10% glycerol, 20 mM of Tris–HCl, 1% Nonidet P-40, 1 μg/mL of leupeptin, 1 mM of phenylmethylsulfonylfluoride, 1 mM of sodium pyrophosphate, and 1 mM of Na3VO4, pH 7.5). Protein quantification was performed using the Pierce BCA Protein Assay Kit (ThermoFisher, Madrid, Spain) following manufacturer’s instructions. Then, 30 μg of protein were resolved by sodium dodecyl sulfate-polyacrylamide gel electrophoresis (SDS-PAGE) and transferred to Immobilon-P polyvinylidene difluoride (PVDF) membranes (Millipore Corp.). Membranes were activated with methanol and blocked with 4% bovine serum albumin (BSA) in Tris-buffered saline-Tween (TTBS: 10 mM of Tris, 150 mM of NaCl; 0.2% Tween-20, pH 7.4) for 2 h. After that, membranes were incubated overnight at 4 °C with the corresponding primary antibodies: anti–HMOX1 (1:1000, ab68477, Abcam, Cambridge, UK), anti-glutamate-cysteine ligase catalytic subunit (GCLC, 1:1000, ab41463, Abcam), anti-β-actin (1:50,000, A3854, Sigma–Aldrich, Madrid, Spain). […] Band intensities from specific proteins were analyzed with Fiji software.

C#CCN(CC#C)CCc1c[nH]c2ccc(OC(=O)C=Cc3ccccc3)cc12 [Compound 14, 3-(2-(Di(prop-2-yn-1-yl)amino)ethyl)-1H-indol-5-yl Cinnamate]
HMOX1 and GCLC protein levels in NRF2 KO MEF cells: not able to increase | HMOX1 and GCLC protein levels in WT MEF cells: increased
